Assay [1] relates to Mycosphaerella graminicola; Anamorph: Septoria tritici. The experiment in a line: Leaf blotch of wheat (SEPTTR) disease control on wheat seedlings. The following applies: Zymoseptoria tritici; for pest or weed control at 121.5 g/ha: low volume application, 121.5 g/H. In kind it is in vivo. The procedure, abridged:
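Protective or curative format: Septoria tritici inoculation either preceded or followed fungicide application to first-leaf Yuma wheat. Severity scored 0–100%; control expressed versus untreated.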

The subject of assay [2] is Puccinia triticina; Synonym: Puccinia recondite f. sp. tritici. The experiment in a line: Wheat brown rust (PUCCRT) disease control on wheat seedlings. In kind it is in vivo. The following applies: Puccinia triticina; for pest or weed control at 121.5 g/ha: low volume application, 121.5 g/H. Put shortly:
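Yuma wheat grown to first fully emerged leaf was inoculated with Puccinia triticina spore suspension either before or after fungicide treatment, held overnight at 22° C. and 100% RH in darkness, then kept at 24° C. Fungicide applied by booth sprayer to run-off (acetone/water, 110 ppm Triton X-100) or as EC by track spray.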

Setting [3] is: 24 h, High volume application, 1 Day Protectant, read-out: SEPTTR 1DP disease control.
[4] abbreviates: 72 h, High volume application, 3 Day Curative, read-out: SEPTTR 3DC disease control.
The mark [5] stands for this setting: 24 h, High volume application, 1 Day Protectant, read-out: PUCCRT 1DP disease control.
Where [6] appears, read: 72 h, High volume application, 3 Day Curative, read-out: PUCCRT 3DC disease control.
Setting [7] is: 24 h, Wheat Leaf Blotch, 1 Day Protectant, high volume application, read-out: Disease Control SEPTTR 1 DP 100 ppm.
Where [8] appears, read: 72 h, Wheat Leaf Blotch, 3 Day Curative, high volume application, read-out: Disease Control SEPTTR 3 DC 100 ppm.
[9] abbreviates: 24 h, Wheat Brown Rust, 1 Day Protectant, high volume application, read-out: Disease Control PUCCRT 1 DP 100 ppm.
Where [10] appears, read: 72 h, Wheat Brown Rust, 3 Day Curative, high volume application, read-out: Disease Control PUCCRT 3 DC 100 ppm.
[11] abbreviates: 24 h, Wheat Leaf Blotch, 1 Day Protectant, read-out: Disease Control SEPTTR 1 DP 121.5 g/H.
[12] abbreviates: 72 h, Wheat Leaf Blotch, 3 Day Curative, read-out: Disease Control SEPTTR 3 DC 121.5 g/H.
The mark [13] stands for this setting: 24 h, Wheat Brown Rust, 1 Day Protectant, read-out: Disease Control PUCCRT 1 DP 121.5 g/H.
Setting [14] is: 72 h, Wheat Brown Rust, 3 Day Curative, read-out: Disease Control PUCCRT 3 DC 121.5 g/H.

Where two headings read alike, the source gives them in different places. A value given as a limit tells only on which side of the number the result lay.

With `COc1ccnc(C(=O)N[C@H]2CCC[C@H](Oc3ccc(F)cc3)[C@@H](OC3CCCC3)[C@H](C)OC2=O)c1OCOC(C)=O` [F162], the pest or weed control at 100 ppm was 80 to 100% in assay [1] (setting [3]), 80 to 100% in assay [1] (setting [4]), 80 to 100% in assay [2] (setting [5]) and 0 to 80% in assay [2] (setting [6]).
Turning to `COc1ccnc(C(=O)N[C@H]2CCC[C@H](OC3CCCC3)[C@@H](OCCCc3ccccc3)[C@H](C)OC2=O)c1O` [F163], the pest or weed control at 100 ppm in assay [1] (setting [3]) was in the range of 80 to 100%; in assay [1] (setting [4]) it was 0 to 80%; in assay [2] (setting [5]) it was 80 to 100%; in assay [2] (setting [6]), 80 to 100%.
In the case of `CCCCCO[C@H]1[C@H](C)OC(=O)[C@@H](NC(=O)c2nccc(OC)c2O)CCC[C@@H]1OC1CCCC1` [F164], the pest or weed control at 100 ppm in assay [1] (setting [3]), in assay [1] (setting [4]), in assay [2] (setting [5]) and in assay [2] (setting [6]) was 80 to 100% in each case.
For the molecule `COc1ccc(O[C@H]2CCC[C@H](NC(=O)c3nccc(OC)c3O)C(=O)O[C@@H](C)[C@@H]2OC2CCCC2)cc1` [F167], the pest or weed control at 100 ppm in assay [1] (setting [3]), in assay [1] (setting [4]), in assay [2] (setting [5]) and in assay [2] (setting [6]) was 80 to 100% in each case.
As for `COc1ccnc(C(=O)N[C@H]2CCC[C@H](OCCCC(F)(F)F)[C@@H](OC3CCCC3)[C@H](C)OC2=O)c1O` [F168], the pest or weed control at 100 ppm in assay [1] (setting [3]), in assay [1] (setting [4]), in assay [2] (setting [5]) and in assay [2] (setting [6]) was 80 to 100% throughout.
For the molecule `COc1ccnc(C(=O)N[C@H]2CCC[C@H](OCC(C)C)[C@@H](OC3CCCCC3)[C@H](C)OC2=O)c1O` [F210], the pest or weed control at 100 ppm in assay [1] (setting [3]), in assay [1] (setting [4]), in assay [2] (setting [5]) and in assay [2] (setting [6]) was 80 to 100% each time.
For the molecule `COc1ccnc(C(=O)N[C@H]2CCC[C@H](OC3CCCCC3)[C@@H](OCC(C)C)[C@H](C)OC2=O)c1O` [F211], the pest or weed control at 100 ppm in assay [1] (setting [3]), in assay [1] (setting [4]), in assay [2] (setting [5]) and in assay [2] (setting [6]) was 80 to 100% throughout.
For the molecule `COc1ccnc(C(=O)N[C@H]2CCC[C@H](OCC(C)C)[C@@H](OCCCc3ccccc3)[C@H](C)OC2=O)c1OC(C)=O` [F214], the pest or weed control at 100 ppm in assay [1] (setting [3]), in assay [1] (setting [4]), in assay [2] (setting [5]) and in assay [2] (setting [6]) was 80 to 100% each time.
On to `COCCC(=O)Oc1c(OC)ccnc1C(=O)N[C@H]1CCC[C@H](OCC(C)C)[C@@H](OCCCc2ccccc2)[C@H](C)OC1=O` [F215], for which the pest or weed control at 100 ppm in assay [1] (setting [3]), in assay [1] (setting [4]), in assay [2] (setting [5]) and in assay [2] (setting [6]) was 80 to 100% in each case.
Take `COc1ccnc(C(=O)N[C@H]2CCC[C@H](OCC(C)C)[C@@H](OCCCC(F)(F)F)[C@H](C)OC2=O)c1OC(C)=O` [F216]: the pest or weed control at 100 ppm in assay [1] (setting [3]), in assay [1] (setting [4]), in assay [2] (setting [5]) and in assay [2] (setting [6]) was 80 to 100% in each case.
Turning to `COc1ccnc(C(=O)N[C@H]2CCC[C@H](OCC(C)C)[C@@H](OC(=O)C3CCCC3)[C@H](C)OC2=O)c1OCOC(=O)C(C)C` [F218], the pest or weed control at 100 ppm in assay [1] (setting [3]) fell in the range of 80 to 100%; in assay [1] (setting [4]), 0 to 80%; in assay [2] (setting [5]), 80 to 100%; in assay [2] (setting [6]), 80 to 100%.
As to `COc1ccnc(C(=O)N[C@H]2CCC[C@H](OCCCc3ccccc3)[C@@H](OCC(C)C)[C@H](C)OC2=O)c1O` [F219], the pest or weed control at 100 ppm in assay [1] (setting [3]) fell in the range of 80 to 100%; in assay [1] (setting [4]), 0 to 80%; in assay [2] (setting [5]) it was 80 to 100%; in assay [2] (setting [6]), 80 to 100%.
On to `C=C(C)CO[C@H]1CCC[C@H](NC(=O)c2nccc(OC)c2O)C(=O)O[C@@H](C)[C@@H]1OCC(C)C` [F220], for which the pest or weed control at 100 ppm in assay [1] (setting [3]), in assay [1] (setting [4]), in assay [2] (setting [5]) and in assay [2] (setting [6]) was 80 to 100% in each case.
With `COc1ccnc(C(=O)N[C@H]2CCC[C@H](OC(=O)C3CCCC3)[C@@H](OCC(C)C)[C@H](C)OC2=O)c1O` [F221], the pest or weed control at 100 ppm in assay [1] (setting [3]) lay in the range of 80 to 100%; in assay [1] (setting [4]) it was 0 to 80%; in assay [2] (setting [5]), 80 to 100%; in assay [2] (setting [6]), 0 to 80%.
Consider `COc1ccnc(C(=O)N[C@H]2CCC[C@H](OCCCc3ccccc3)[C@@H](OCC(C)C)[C@H](C)OC2=O)c1OCOC(C)=O` [F222], for which the pest or weed control at 100 ppm in assay [1] (setting [3]), in assay [1] (setting [4]), in assay [2] (setting [5]) and in assay [2] (setting [6]) was 80 to 100% in each case.
As for `COc1ccnc(C(=O)N[C@H]2CCC[C@H](OC(=O)C3CCCC3)[C@@H](OCC(C)C)[C@H](C)OC2=O)c1OCOC(C)=O` [F223], the pest or weed control at 100 ppm in assay [1] (setting [3]), in assay [1] (setting [4]), in assay [2] (setting [5]) and in assay [2] (setting [6]) was 80 to 100% in each case.
For `COc1ccnc(C(=O)N[C@H]2CCC[C@H](OCCCc3ccccc3)[C@@H](OC3CCCC3)[C@H](C)OC2=O)c1O` [F224], the pest or weed control at 100 ppm in assay [1] (setting [3]) is 0 to 80%; in assay [1] (setting [4]), 0 to 80%; in assay [2] (setting [5]), 80 to 100%; in assay [2] (setting [6]) it was 0 to 80%.
In the case of `COc1ccnc(C(=O)N[C@H]2CCC[C@H](OCCCc3ccccc3)[C@@H](OC3CCCC3)[C@H](C)OC2=O)c1OCOC(C)=O` [F225], the pest or weed control at 100 ppm in assay [1] (setting [3]), in assay [1] (setting [4]), in assay [2] (setting [5]) and in assay [2] (setting [6]) was 80 to 100% throughout.
Take `COc1ccnc(C(=O)N[C@H]2CCC[C@H](Oc3ccccc3)[C@@H](OC(=O)C3CCCC3)[C@H](C)OC2=O)c1O` [F232]: the pest or weed control at 100 ppm in assay [1] (setting [7]) lay in the range of 80 to 100%; in assay [1] (setting [8]), 0 to 80%; in assay [2] (setting [9]), 80 to 100%; in assay [2] (setting [10]), 80 to 100%.
As to `COc1ccnc(C(=O)N[C@H]2CCC[C@H](Oc3ccccc3)[C@@H](OC(=O)C3CCCC3)[C@H](C)OC2=O)c1OCOC(C)=O` [F233], the pest or weed control at 100 ppm in assay [1] (setting [7]), in assay [1] (setting [8]), in assay [2] (setting [9]) and in assay [2] (setting [10]) was 80 to 100% in each case. For the same molecule, the pest or weed control at 121.5 g/ha in assay [1] (setting [11]) lay in the range of 80 to 100%; in assay [1] (setting [12]), 80 to 100%; in assay [2] (setting [13]), 80 to 100%; in assay [2] (setting [14]), 0 to 80%.
On to `COc1ccnc(C(=O)N[C@H]2CCC[C@H](Oc3ccccc3)[C@@H](OC(=O)C3CCCC3)[C@H](C)OC2=O)c1OCOC(=O)C(C)C` [F234], for which the pest or weed control at 100 ppm in assay [1] (setting [7]), in assay [1] (setting [8]), in assay [2] (setting [9]) and in assay [2] (setting [10]) was 80 to 100% in each case. For the same molecule, the pest or weed control at 121.5 g/ha in assay [1] (setting [11]) is 80 to 100%; in assay [1] (setting [12]), under 0%; in assay [2] (setting [13]), 80 to 100%; in assay [2] (setting [14]) it was under 0%.
Regarding `COc1ccnc(C(=O)N[C@H]2CCC[C@H](Oc3ccccc3)[C@@H](OC(=O)C3CCCC3)[C@H](C)OC2=O)c1OC(C)=O` [F235], the pest or weed control at 100 ppm in assay [1] (setting [7]), in assay [1] (setting [8]), in assay [2] (setting [9]) and in assay [2] (setting [10]) was 80 to 100% throughout. Also, the pest or weed control at 121.5 g/ha in assay [1] (setting [11]) is 80 to 100%; in assay [1] (setting [12]), 0 to 80%; in assay [2] (setting [13]), 80 to 100%; in assay [2] (setting [14]), 0 to 80%.
Consider `COc1ccnc(C(=O)N[C@H]2CCC[C@H](Oc3ccccc3)[C@@H](OC(=O)C3CCCC3)[C@H](C)OC2=O)c1OC(=O)C1CC1` [F236], for which the pest or weed control at 100 ppm in assay [1] (setting [7]) lay within 0 to 80%; in assay [1] (setting [8]), 0 to 80%; in assay [2] (setting [9]), 80 to 100%; in assay [2] (setting [10]), 0 to 80%. In addition, the pest or weed control at 121.5 g/ha in assay [1] (setting [11]) was 80 to 100%; in assay [1] (setting [12]) it was 0 to 80%; in assay [2] (setting [13]) it was 0 to 80%; in assay [2] (setting [14]), under 0%.

The record behind these values is patent US9681664B2, “Macrocyclic picolinamides as fungicides” (Dow Agrosciences LLC, priority 2012, dated 2017).
